In PubChem BioAssay AID2060889 (Molecular Pharmacology Branch, DTP, NCI, 2025):

Test system: LG0567-F671-PDC complex spheroids viability
Assay: Anticancer human tumor LG0567-F671-PDC patient-derived lung adenocarcinoma cell line growth inhibition [RAS]
Conditions: for viability, T/C: stronger effect = lower value
In short: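 Tumour cells grown as complex spheroids with HUVEC endothelial cells and mesenchymal stem cells, treated with RAS pathway inhibitor combinations. Each agent spans half-log steps from near clinical Cmax, or 10 microM where Cmax is unknown.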
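Note: spheroids exposed to compound for seven days before readout.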
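Throughout, for IC50: luminescence signal used as a proxy for viable cells.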

For `Cc1nc(N2CCC3(CC2)COC(C)C3N)c(CO)nc1Sc1ccnc(N)c1Cl` (centres undefined), which viability, T/C (compound 0.0316 µM) is on record?
The viability, T/C was 72.2% [middle of 4 runs].

What about the viability, T/C (compound 0.1 µM) of the same compound?
The viability, T/C was 48.2% [middle of 4 runs].

What about the viability, T/C (compound 0.316 µM) of the same compound?
Its viability, T/C is 36.3% [middle of 4 runs].

And the viability, T/C (compound 1 µM)?
Its viability, T/C is 28.1% [middle of 4 runs].

What about the viability, T/C (compound 3.16 µM) of the same compound?
The viability, T/C was 21.7% [middle of 4 runs].

What about the viability, T/C (compound 10 µM) of the same compound?
The viability, T/C was 19.9% [middle of 4 runs].

What about the IC50 (curve of compound) of the same compound?
Its IC50 is 93.7 nM [middle of 4 runs].

With `CC(=O)OC12COC1CC(O)C1(C)C(=O)C(O)C3=C(C)C(OC(=O)C(O)C(NC(=O)OC(C)(C)C)c4ccccc4)CC(O)(C(OC(=O)c4ccccc4)C21)C3(C)C` (centres undefined) + C=CC(=O)N1CCN(c2nc(OCC3CCCN3C)nc3c(F)c(-c4nc(N)cc(C)c4C(F)(F)F)c(Cl)cc23)C(C)C1 as the compound, how does the IC50 (curve of first compound, second compound 0.00316 µM) read?
Its IC50 is < 0.0316 µM.

And the IC50 (curve of first compound, second compound 0.01 µM)?
The IC50 was < 0.0316 µM.

What about the IC50 (curve of first compound, second compound 0.0316 µM) of the same compound?
Its IC50 is < 0.0316 µM.

What about the IC50 (curve of first compound, second compound 0.1 µM) of the same compound?
The IC50 was < 0.0316 µM.

What about the IC50 (curve of first compound, second compound 0.316 µM) of the same compound?
Its IC50 is < 0.0316 µM.

And the IC50 (curve of first compound, second compound 1 µM)?
The IC50 was < 0.0316 µM.

What about the viability, T/C (second compound 0.00316 µM, first compound 0.0316 µM) of the same compound?
The viability, T/C was 14%.

And the viability, T/C (second compound 0.00316 µM, first compound 0.1 µM)?
Its viability, T/C is 12.6%.

What about the viability, T/C (second compound 0.00316 µM, first compound 0.316 µM) of the same compound?
Its viability, T/C is 13.9%.

And the viability, T/C (second compound 0.00316 µM, first compound 1 µM)?
The viability, T/C was 14.3%.

And the viability, T/C (second compound 0.00316 µM, first compound 3.16 µM)?
The viability, T/C was 15.8%.

What about the viability, T/C (second compound 0.00316 µM, first compound 10 µM) of the same compound?
Its viability, T/C is 12%.

And the viability, T/C (second compound 0.01 µM, first compound 0.0316 µM)?
Its viability, T/C is 11.3%.

And the viability, T/C (second compound 0.01 µM, first compound 0.1 µM)?
The viability, T/C was 11.3%.

What about the viability, T/C (second compound 0.01 µM, first compound 0.316 µM) of the same compound?
The viability, T/C was 9.97%.

And the viability, T/C (second compound 0.01 µM, first compound 1 µM)?
Its viability, T/C is 11.6%.

And the viability, T/C (second compound 0.01 µM, first compound 3.16 µM)?
The viability, T/C was 12.5%.

And the viability, T/C (second compound 0.01 µM, first compound 10 µM)?
Its viability, T/C is 9.61%.

And the viability, T/C (second compound 0.0316 µM, first compound 0.0316 µM)?
The viability, T/C was 13.7%.

And the viability, T/C (second compound 0.0316 µM, first compound 0.1 µM)?
The viability, T/C was 11.6%.

What about the viability, T/C (second compound 0.0316 µM, first compound 0.316 µM) of the same compound?
Its viability, T/C is 10.8%.

What about the viability, T/C (second compound 0.0316 µM, first compound 1 µM) of the same compound?
The viability, T/C was 11.4%.

And the viability, T/C (second compound 0.0316 µM, first compound 3.16 µM)?
Its viability, T/C is 14.5%.

And the viability, T/C (second compound 0.0316 µM, first compound 10 µM)?
The viability, T/C was 9.14%.

And the viability, T/C (second compound 0.1 µM, first compound 0.0316 µM)?
The viability, T/C was 11.1%.

What about the viability, T/C (second compound 0.1 µM, first compound 0.1 µM) of the same compound?
The viability, T/C was 10.8%.

And the viability, T/C (second compound 0.1 µM, first compound 0.316 µM)?
Its viability, T/C is 10.9%.

And the viability, T/C (second compound 0.1 µM, first compound 1 µM)?
The viability, T/C was 11.5%.

And the viability, T/C (second compound 0.1 µM, first compound 3.16 µM)?
Its viability, T/C is 13.6%.

What about the viability, T/C (second compound 0.1 µM, first compound 10 µM) of the same compound?
Its viability, T/C is 8.85%.

What about the viability, T/C (second compound 0.316 µM, first compound 0.0316 µM) of the same compound?
The viability, T/C was 11.9%.

And the viability, T/C (second compound 0.316 µM, first compound 0.1 µM)?
The viability, T/C was 10.7%.

And the viability, T/C (second compound 0.316 µM, first compound 0.316 µM)?
The viability, T/C was 11.5%.

And the viability, T/C (second compound 0.316 µM, first compound 1 µM)?
Its viability, T/C is 12.2%.

And the viability, T/C (second compound 0.316 µM, first compound 3.16 µM)?
The viability, T/C was 14.7%.

What about the viability, T/C (second compound 0.316 µM, first compound 10 µM) of the same compound?
The viability, T/C was 9.3%.

And the viability, T/C (second compound 1 µM, first compound 0.0316 µM)?
The viability, T/C was 12.6%.

What about the viability, T/C (second compound 1 µM, first compound 0.1 µM) of the same compound?
The viability, T/C was 10.2%.

And the viability, T/C (second compound 1 µM, first compound 0.316 µM)?
Its viability, T/C is 12.4%.

And the viability, T/C (second compound 1 µM, first compound 1 µM)?
Its viability, T/C is 14.5%.

What about the viability, T/C (second compound 1 µM, first compound 3.16 µM) of the same compound?
The viability, T/C was 14.7%.

What about the viability, T/C (second compound 1 µM, first compound 10 µM) of the same compound?
The viability, T/C was 9.86%.
